Experimental data published in article PMC3463759 (Clinical cancer research : an official journal of the …, 2012).
Read-outs that look alike come from different tables or passages of the source. Values belong to the compound of their own block, whether it stands above or below them.

Assays:
[1] = for reduction of Cmax: paclitaxel with dasatinib (Cycle 2 Day 1) vs paclitaxel alone (Cycle 1 Day 1)
clinical = conditions: human, plasma, intravenous
[2] = paclitaxel alone, Cycle 1 Day 1, N=20
[3] = paclitaxel alone, Cycle 1 Day 1, N=20, dose-normalized to 175 mg/m^2
[4] = paclitaxel and dasatinib, Cycle 2 Day 1, N=18
[5] = paclitaxel and dasatinib, Cycle 2 Day 1, N=18, dose-normalized to 175 mg/m^2
[6] = paclitaxel with dasatinib vs paclitaxel alone

inter-individual variability (%CV) for exposure ([1]; in vivo): 40–70% | T-HALF, Mean (SD) [1, 2]: 1.26 h | AUC(0-T), Geo Mean (%CV) [1, 3]: 732 (53) ng•h/mL | AUC(INF), Geo Mean (%CV) [1, 3]: 771 (53) ng•h/mL | Cmax, Geo Mean (%CV) [1, 3]: 349 (44) ng/mL | T-HALF, Mean (SD) ([1]; paclitaxel alone, Cycle 1 Day 1, N=20, listed as 6-OH Paclitaxel): 1.26 (0.75) h | M/P, metabolite to parent ratio based on dose normalized AUC(INF), Mean (SD) ([1]; paclitaxel alone, N=20): 0.06 (0.04) | T-HALF, Mean (SD) [1, 4]: 0.94 h | AUC(0-T), Geo Mean (%CV) [1, 5]: 562 (68) ng•h/mL | AUC(INF), Geo Mean (%CV) [1, 5]: 615 (68) ng•h/mL | Cmax, Geo Mean (%CV) [1, 5]: 260 (58) ng/mL | T-HALF, Mean (SD) ([1]; paclitaxel and dasatinib, Cycle 2 Day 1, N=18, listed as 6-OH Paclitaxel): 0.94 (0.47) h | M/P, metabolite to parent ratio based on dose normalized AUC(INF), Mean (SD) ([1]; paclitaxel and dasatinib, N=18): 0.05 (0.02) | reduction of Cmax [1]: 25% | reduction of geometric mean AUC(0-T) [1, 6]: 23% | reduction of geometric mean AUC(INF) [1, 6]: 20% | reduction of mean T-HALF [1, 6]: 25%
SMILES: CC(=O)O[C@H]1C(=O)[C@@]2(C)[C@H]([C@H](OC(=O)c3ccccc3)[C@]3(O)C[C@H](OC(=O)[C@H](O)[C@@H](NC(=O)c4ccccc4)c4ccccc4)C(C)=C1C3(C)C)[C@]1(OC(C)=O)CO[C@@H]1[C@@H](O)[C@@H]2O [6-OH paclitaxel]

differences in mean T-HALF, MRT(INF), CLt, and Vss ([1]; paclitaxel alone vs paclitaxel in combination with dasatinib): less than 20% | CLt, Mean (SD) [1, 2]: 20.9 (6.3) L/h | T-HALF, Mean (SD) [1, 2]: 11.7 (1.6) h | CLt, Mean (SD) [1, 4]: 24.3 (6.0) L/h | T-HALF, Mean (SD) [1, 4]: 11.7 (3.8) h | reduction of Cmax [1]: 19% | reduction of geometric mean AUC(0-T) [1, 6]: 15% | reduction of geometric mean AUC(INF) [1, 6]: 14% | MRT inf (clinical): 6.9 h | Vd (clinical): 163 L | AUC(0-inf) (clinical; 175 mg/m^2): 16100 ng·h/mL | AUC(0-t) (clinical; 175 mg/m^2): 15700 ng·h/mL | Cmax (clinical; 175 mg/m^2): 4820 ng/mL | MRT inf (clinical; 175 mg/m^2): 6.7 h
SMILES: CC(=O)O[C@H]1C(=O)[C@@]2(C)[C@H]([C@H](OC(=O)c3ccccc3)[C@]3(O)C[C@H](OC(=O)[C@H](O)[C@@H](NC(=O)c4ccccc4)c4ccccc4)C(C)=C1C3(C)C)[C@]1(OC(C)=O)CO[C@@H]1C[C@@H]2O [paclitaxel]
